Active and inactive are the calls of the source. The rule behind the calls is not given here.
Columns and labels:
HeLa = assay: Cytotoxicity against human HeLa cells after 72 hrs by CCK8 assay; format: functional, cell-based
MCF7 = assay: Cytotoxicity against human MCF7 cells after 72 hrs by CCK8 assay; format: functional, cell-based; conditions: MCF7, 72 h
HCT-116 = assay: Cytotoxicity against human HCT116 cells after 72 hrs by CCK8 assay; format: functional, cell-based; conditions: HCT-116, 72 h
PANC-1 = assay: Cytotoxicity against human PANC1 cells after 72 hrs by CCK8 assay; format: functional, cell-based; conditions: PANC-1, 72 h
SW1990 = assay: Cytotoxicity against human SW1990 cells after 72 hrs by CCK8 assay; format: functional, cell-based; conditions: SW1990, 72 h
HEK293 = assay: Inhibition of TNFalpha-stimulated NFkappaB (unknown origin) expressed in HEK293 cells pretreated for 2 hrs followed by TNFalpha stimulation and measured after 6 hrs by luciferase reporter gene assay; format: cell-based; conditions: Homo sapiens
RAW264.7 = assay: Inhibition of LPS-induced nitric oxide production in […] RAW264.7 cells at 2.5 to 20 uM pretreated for 2 hrs followed by LPS-stimulation and measured after 20 hrs by Griess assay; format: functional, cell-based

Row | SMILES | IC50 (HeLa) | IC50 (MCF7) | IC50 (HCT-116) | IC50 (PANC-1) | IC50 (SW1990) | inhibition (HEK293) | inhibition (RAW264.7)
1 | C=C[C@]1(C)C=C2C(=O)C(O)=C3[C@](C)(COC(=O)CC)[C@H](OC(C)=O)C[C@H]4C[C@@]34[C@@]2(O)CC1 | 2.6 µM | 2.9 µM | 1.9 µM | 3.6 µM | 1 µM | – | –
2 | C=C[C@]1(C)C=C2C(=O)C(O)=C3[C@](C)(COC(=O)C(C)C)[C@H](O)C[C@H]4C[C@@]34[C@@]2(O)CC1 | 1.2 µM | 1.1 µM | 1.3 µM | 2.1 µM | 0.8 µM | – | –
3 | C=C[C@@]1(C)CCC2=C(C(=O)O[C@@H]3CC[C@@]4(C)COC(=O)[C@@H]4[C@]23C)[C@H]1O | > 50 µM | > 50 µM | > 50 µM | > 50 µM | > 50 µM | – | –
4 | C=C[C@]1(C)C=C2C(=O)[C@H](O)[C@H]3[C@](C)(COC(=O)C(C)C)[C@H](OC(C)=O)C[C@H]4C[C@]43[C@@]2(O)CC1 | > 50 µM | > 50 µM | > 50 µM | 26.6 µM | > 50 µM | – | –
5 | C=C[C@]1(C)C=C2C(=O)C(O)=C3[C@](C)(COC(C)=O)[C@H](OC(C)=O)C[C@H]4C[C@@]34[C@@]2(O)CC1 | 3.1 µM | 4.1 µM | 2.2 µM | 6 µM | 2.4 µM | – | –
6 | C=C[C@]1(C)C=C2C(=O)C(O)=C3[C@@]4(OC)[C@H](C[C@H](OC(C)=O)[C@]3(C)COC(=O)C(C)C)C[C@]24CC1 | 6 µM | 8.3 µM | 8.4 µM | 7 µM | 8 µM | Dose-dependent effect | Active
7 | C=C[C@]1(C)C=C2C(=O)C(=O)[C@H]3[C@](C)(COC(=O)C(C)C)[C@H](OC(C)=O)C[C@H]4C[C@]43[C@@]2(O)CC1 | > 50 µM | > 50 µM | 29.4 µM | > 50 µM | > 50 µM | – | –
8 | C=C[C@]1(C)C=C2C(=O)C(O)=C3[C@](C)(COC(=O)C(C)C)[C@H](OC(C)=O)C[C@H]4C[C@@]34[C@@]2(O)CC1 | 0.7 µM | 1.4 µM | 1 µM | 1.8 µM | 0.3 µM | – | –
9 | C=C[C@]1(C)C=C2C(=O)C(O)=C3[C@@]4(O)[C@H](C[C@H](OC(C)=O)[C@]3(C)COC(=O)C(C)C)C[C@]24CC1 | 13.1 µM | 10.7 µM | 12.6 µM | 12.1 µM | 10.3 µM | Dose-dependent effect | Active

Source: ChEMBL document CHEMBL4145637, “Libertellenones O-S and Eutypellenones A and B, Pimarane Diterpene Derivatives from the Arctic Fungus Eutypella sp. D-1” (J Nat Prod, 2018)
